Measurements reported in a compilation of properties of binary mixtures (doi:10.5541/ijot.303607).

Assay: xn = mol fraction of the nth substance listed
Settings: 101 kPa

CC(O)C(=O)[O-].[NH3+]CCO (configuration not stated) + O
speed of sound [m/s]
Settings | x1 = 0.0088 | x1 = 0.0135 | x2 = 0.3197 | x2 = 0.5253 | x2 = 0.6892 | x2 = 0.9027 | x2 = 0.9293 | x2 = 0.949 | x2 = 0.9707
288.15 K | 1513.4 | – | – | 1897.5 | – | 1778.8 | 1727.7 | 1676.5 | 1602.1
290.65 K | 1520.5 | 1541.4 | – | 1891.7 | 1887.8 | – | 1728.5 | 1678.8 | 1606.7
293.15 K | 1527.1 | 1547.4 | 1882.8 | 1886 | 1882.8 | 1776.9 | 1729 | 1680.8 | –
295.65 K | 1533.2 | 1553 | 1876.5 | 1880.3 | 1877.8 | – | 1729.3 | 1682.6 | 1614.6
298.15 K | 1539 | 1558.2 | 1870.4 | – | 1872.8 | 1774.5 | 1729.4 | 1684.1 | 1618.1
300.65 K | 1544.3 | – | 1864.4 | 1869.1 | – | – | 1729.3 | – | 1621.3
303.15 K | 1549.2 | 1567.4 | 1858.5 | 1863.5 | 1862.7 | – | 1729 | – | 1624.1
305.65 K | 1553.7 | – | 1852.6 | 1858 | 1857.7 | – | 1728.6 | 1687.2 | 1626.6
308.15 K | 1557.8 | 1575.2 | – | 1852.5 | 1852.6 | 1767.7 | 1727.9 | 1687.7 | 1628.8
310.65 K | 1561.5 | – | 1841.1 | – | 1847.5 | – | 1727 | 1688 | 1630.8
313.15 K | 1565 | – | 1835.4 | – | 1842.3 | 1763.4 | 1726 | 1688.1 | 1632.4
315.65 K | 1568 | 1584.1 | 1829.7 | 1835.9 | – | 1761.1 | 1724.7 | 1687.9 | –
318.15 K | 1570.7 | 1586.5 | 1824 | – | 1831.9 | 1758.6 | – | 1687.5 | –
320.65 K | – | 1588.5 | 1818.3 | 1824.8 | 1826.7 | 1756 | – | – | 1635.6
323.15 K | 1575.1 | 1590.1 | 1812.7 | – | – | 1753.2 | 1719.9 | 1686.1 | –

CC(O)C(=O)[O-].[NH3+]CCO (configuration not stated) + CCO
speed of sound [m/s]
Settings | x2 = 0.0543 | x2 = 0.1051 | x2 = 0.206 | x2 = 0.3151 | x2 = 0.4144 | x2 = 0.5122 | x2 = 0.6116 | x2 = 0.7232 | x2 = 0.8109 | x2 = 0.9528
288.15 K | – | 1848 | 1792.9 | 1727.2 | – | 1590.8 | 1514 | – | 1349.2 | –
290.65 K | 1863.7 | 1839.9 | – | 1720.3 | 1654.4 | 1586.3 | 1507.4 | 1416 | 1342 | 1219.2
293.15 K | 1855.8 | 1832.1 | 1779 | 1713.6 | – | – | 1500.8 | 1409.1 | 1334.8 | 1211.3
295.65 K | 1848.3 | 1824.7 | 1772.2 | 1707 | 1640.9 | 1573.7 | 1494 | 1402.2 | 1327.5 | 1203.3
298.15 K | – | – | 1765.7 | 1700.7 | 1634.4 | – | 1487.3 | 1395.3 | 1320.3 | 1195.4
300.65 K | – | – | 1765.7 | 1700.7 | 1634.4 | 1567.3 | 1487.3 | 1395.3 | – | –
303.15 K | 1828 | 1804.4 | – | – | 1621.5 | 1555 | 1474.1 | – | 1305.9 | 1179.5
305.65 K | 1821.7 | 1798.1 | 1747.1 | 1682.1 | – | – | 1467.5 | 1374.7 | 1298.8 | 1171.5
308.15 K | – | 1791.9 | 1741.1 | 1676 | 1608.8 | 1542.7 | 1461 | 1367.9 | 1291.6 | 1163.6
310.65 K | 1809.5 | 1785.8 | 1735.2 | 1670 | 1602.6 | 1536.5 | 1454.5 | – | 1284.4 | –
313.15 K | – | 1779.7 | 1729.3 | 1664 | 1596.3 | 1530.3 | 1448 | 1354.3 | 1277.3 | 1147.8
315.65 K | – | 1773.7 | 1723.4 | 1658 | 1590.1 | 1524.2 | 1441.5 | 1347.5 | 1270.2 | –
318.15 K | – | 1767.8 | 1717.5 | – | 1583.9 | 1518.1 | 1435 | 1340.8 | 1263.1 | 1132.2
320.65 K | 1786.1 | 1762 | 1711.8 | 1646 | – | 1511.9 | 1428.6 | – | 1256.1 | 1124.5
323.15 K | 1780.3 | 1756.1 | 1706 | 1640.2 | 1571.5 | 1505.7 | 1422.2 | 1327.3 | 1249 | –
